Test systems include T-47D breast; SNB-19 CNS; HOP-92 NSCLC; SK-MEL-2 melanoma; COLO 205 colon; LOX IMVI melanoma; ACHN renal; HCC-2998 colon; SK-MEL-5 melanoma; TK-10 renal; NCI-H460 lung.
Experiment in all cases: inhibition of tumour cell growth, NCI panel, 48 h

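Where inhibition never reached the appropriate level, the endpoint shown equals the highest concentration tested. Otherwise, values were interpolated linearly from a five-concentration, 48-hour dose response in 96-well plates. TGI denotes the concentration required for complete inhibition of growth.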 Bounds are passed on as bounds.

For `CC1=C/C(=N/N2C(=O)/C(=C/c3ccc(Cl)cc3)N=C2c2ccccc2)CC(C)(C)C1`, the TGI in the test with T-47D breast was over 100 µM; in the test with SNB-19 CNS, over 100 µM; with HOP-92 NSCLC, over 100 µM; in the test on SK-MEL-2 melanoma it was 96 µM; in the test with COLO 205 colon it was over 100 µM; in the test with LOX IMVI melanoma it was over 100 µM. In addition, the TGI in the test with ACHN renal, in the test on HCC-2998 colon, in the test on SK-MEL-5 melanoma, in the test on TK-10 renal and with NCI-H460 lung was over 100 µM throughout.
`CC(=O)Oc1ccn2nc(C)c(Br)c2c1Br`: the TGI in the test on T-47D breast is over 76.8 µM; in the test with SNB-19 CNS, over 100 µM; in the test with HOP-92 NSCLC it was 36.7 µM; in the test on SK-MEL-2 melanoma, over 67 µM; in the test on COLO 205 colon, 38 µM; in the test with LOX IMVI melanoma it was 36 µM. Also, the TGI is 31.4 µM in the test with ACHN renal; 49.9 µM in the test on HCC-2998 colon; 31.7 µM in the test on SK-MEL-5 melanoma; over 94.8 µM with TK-10 renal; 53.1 µM in the test on NCI-H460 lung.
Turning to `O=c1c2cc(Br)ccc2oc2nc3n(c(=O)c12)CCCS3`, the TGI in the test on T-47D breast, in the test on SNB-19 CNS, with HOP-92 NSCLC, in the test with SK-MEL-2 melanoma, in the test with COLO 205 colon and in the test on LOX IMVI melanoma was over 100 µM in each case. The TGI in the test on ACHN renal, in the test with HCC-2998 colon, with SK-MEL-5 melanoma, with TK-10 renal and with NCI-H460 lung was over 100 µM each time.
Turning to `C=C1CC/C=C(/C(=O)O)CC[C@H]2[C@@H]1CC2(C)C`, the TGI in the test on T-47D breast, with SNB-19 CNS, in the test on HOP-92 NSCLC, in the test on SK-MEL-2 melanoma, in the test on COLO 205 colon and in the test on LOX IMVI melanoma was over 100 µM throughout. In addition, the TGI in the test on ACHN renal, in the test with HCC-2998 colon, in the test with SK-MEL-5 melanoma, in the test on TK-10 renal and with NCI-H460 lung was over 100 µM each time.
Turning to `COc1ccc(-c2cc(-c3ccc(Nc4ccnc5cc(C(F)(F)F)ccc45)cc3)[nH]c(=O)c2C#N)c2ccccc12`, the TGI in the test with T-47D breast was over 60.5 µM; in the test with SNB-19 CNS it was over 54.7 µM; with HOP-92 NSCLC it was over 100 µM; in the test with SK-MEL-2 melanoma it was over 100 µM; in the test on COLO 205 colon it was over 58.4 µM; in the test on LOX IMVI melanoma it was over 49.7 µM. Further, the TGI in the test on ACHN renal is over 81.5 µM; in the test with HCC-2998 colon, over 100 µM; in the test with SK-MEL-5 melanoma, over 100 µM; with TK-10 renal, over 90.7 µM; in the test with NCI-H460 lung, over 100 µM.
For the molecule `NC1CC2C3CCC2C1C3=O` (configuration not stated), the TGI in the test on T-47D breast, with SNB-19 CNS, in the test with HOP-92 NSCLC, in the test with SK-MEL-2 melanoma, with COLO 205 colon and in the test with LOX IMVI melanoma was over 100 µM each time. For the same molecule, the TGI with ACHN renal, with HCC-2998 colon, in the test with SK-MEL-5 melanoma, in the test on TK-10 renal and in the test on NCI-H460 lung was over 100 µM in each case.
As to `COc1nn(Cc2ccccc2F)c2ccc([N+](=O)[O-])cc12`, the TGI with T-47D breast, in the test with SNB-19 CNS, in the test on HOP-92 NSCLC, in the test on SK-MEL-2 melanoma, in the test on COLO 205 colon and in the test on LOX IMVI melanoma was over 100 µM throughout. Besides, the TGI in the test on ACHN renal, in the test on HCC-2998 colon, in the test on SK-MEL-5 melanoma, with TK-10 renal and in the test with NCI-H460 lung was over 100 µM in each case.
Turning to `N#Cc1c(=O)c2cc([N+](=O)[O-])ccc2n2c1[nH]c1ccccc12`, the TGI is over 72.7 µM in the test with T-47D breast; over 72.9 µM in the test on SNB-19 CNS; over 39 µM with HOP-92 NSCLC; over 69.1 µM in the test on SK-MEL-2 melanoma; over 44.4 µM with COLO 205 colon; over 50.4 µM in the test on LOX IMVI melanoma. Besides, the TGI is over 93.5 µM in the test on ACHN renal; over 100 µM in the test with HCC-2998 colon; 28.3 µM with SK-MEL-5 melanoma; over 100 µM with TK-10 renal; over 89.2 µM in the test on NCI-H460 lung.
As for `C#CC(O)/C=C/CCCCCCC#CC/C=C\CC#CCCCCCC/C=C/C(O)C#C` (configuration not stated), the TGI came to 5.85 µM with T-47D breast; 24.8 µM with SNB-19 CNS; 5.57 µM with HOP-92 NSCLC; 6.8 µM in the test on SK-MEL-2 melanoma; 4.29 µM in the test on COLO 205 colon; 0.0282 µM with LOX IMVI melanoma. Moreover, the TGI in the test on ACHN renal is 13.7 µM; with HCC-2998 colon, 3.39 µM; with SK-MEL-5 melanoma it was 3.14 µM; in the test on TK-10 renal it was 11 µM; in the test with NCI-H460 lung, 16.3 µM.
With `Cc1cccc(-c2cc(=O)c3ccc(C)nc3[nH]2)c1`, the TGI is over 100 µM in the test with T-47D breast; over 100 µM in the test with SNB-19 CNS; 57.7 µM in the test with HOP-92 NSCLC; over 100 µM in the test with SK-MEL-2 melanoma; 4.06 µM in the test with COLO 205 colon; over 100 µM in the test on LOX IMVI melanoma. Also, the TGI in the test on ACHN renal was over 100 µM; with HCC-2998 colon it was 27.4 µM; with SK-MEL-5 melanoma it was 15.4 µM; in the test on TK-10 renal, over 84.6 µM; with NCI-H460 lung, 19.5 µM.
Take `N=c1c2c3n(c4c(=O)n(-c5ccccc5)c(=S)n(c(=O)n1-c1ccccc1)c24)CCCCC3`: the TGI with T-47D breast, in the test with SNB-19 CNS, in the test on HOP-92 NSCLC, with SK-MEL-2 melanoma, in the test on COLO 205 colon and in the test with LOX IMVI melanoma was over 100 µM each time. The TGI with ACHN renal, in the test with HCC-2998 colon, in the test with SK-MEL-5 melanoma, in the test with TK-10 renal and in the test on NCI-H460 lung was over 100 µM throughout.
On to `O=C1CC(Br)c2c(Cl)sc(Cl)c21` (configuration not stated), for which the TGI with T-47D breast was determined as 16 µM; with SNB-19 CNS, 37.8 µM; with HOP-92 NSCLC, 29.6 µM; in the test with SK-MEL-2 melanoma, 32.3 µM; with COLO 205 colon it was 28.6 µM; in the test on LOX IMVI melanoma, 4.4 µM. Further, the TGI with ACHN renal turned out to be 24.6 µM; with HCC-2998 colon, 24.4 µM; with SK-MEL-5 melanoma, 41.9 µM; in the test with TK-10 renal, 7.3 µM; with NCI-H460 lung, 34.8 µM.

Source of the values: PubChem BioAssay (NCI).
